We go through three molecules from article PMC5244253, “Phloretin Attenuates Listeria monocytogenes Virulence Both In vitro and In vivo by Simultaneously Targeting Listeriolysin O and Sortase A” (Frontiers in Cellular and Infection Microbiology, 2017).

For series [1], the system named is L. monocytogenes. Particulars: cited from earlier work.
A further series addresses T1, listeriolysin O (LLO) (Listeria monocytogenes serovar 1/2a, UniProt P13128).
T1 construct: endogenous in cells; host or cells: L. monocytogenes EGDe wild-type strain BUG 1600
The experiment in a line: Hemolysis assay of L. monocytogenes culture supernatants. It counts as cell-based. As to the method:
Overnight cultures of EGDe were enlarged and cultured into fresh TSB (1:100) at 37°C for 2 h with shaking and then treated with various concentrations of phloretin until the optical density (OD) at 600 nm reached 2.0, at which point they were harvested (8000 g, 5 min). The bacterial culture supernatants were incubated with rabbit erythrocytes (final concentration of 2.5%) in PBS (35 mM Na3PO4, 125 mM NaCl, 0.5 mg/mL BSA, pH 5.5) at 37°C for 30 min, and then the hemolytic activity of each sample was determined by measuring the release of hemoglobin in supernatants at an OD of 543 nm after centrifugation (8000 g, 1 min).
To examine the direct effect of phloretin on hemolysis induced by bacterial culture supernatants, the hemolytic activities of bacterial culture supernatants pre-incubated with various concentrations of phloretin were determined as described above.

The next series deals with LLO. It counts as cell-based, Listeria monocytogenes.
A further series has as its system hly. Nature of the series: Agar assay and β-galactosidase activity analysis (phly-lacZ). The conditions noted are these: phly-lacZ-containing bacteria; agar assay 0–116.68 μM and β-galactosidase activity. It counts as cell-based, Listeria monocytogenes. As to the method: The phly-lacZ plasmid was a kind gift from Dr. Birgitte Kallipolitis (University of Southern Denmark) and was electroporated into EGDe cells to perform an agar assay as described previously (Kastbjerg et al., [2010]). A 25-ml aliquot of TSB agar was melted at 44°C and supplemented with X-gal (150 μg/ml) and kanamycin (50 μg/ml) before being thoroughly mixed with 1 ml of an overnight culture of bacteria containing the phly-lacZ plasmid. Nine wells were made per plate following desiccation in Class II biosafety cabinet at room temperature. A 30-μl aliquot of phloretin or benzalkonium bromide at varying concentrations was added to each well. The plates were incubated for 48 h at 37°C. The β-galactosidase activities of the phly-lacZ-containing bacteria treated with various concentrations of phloretin were quantitatively determined as previously described (Larsen et al., [2006]).

The target of the next series is T2, T90A (Listeria monocytogenes serovar 1/2a, UniProt Q8Y8H5, T162A).
T2 construct: GST (inferred from vector pGEX-6P-1) (N); made in house
The experiment in a line: Fluorescence-quenching binding constant (T90A). The conditions noted are these: fluorescence-quenching spectroscopy, read-out: binding constant KA (converted). How it is done:
(§1) The binding constant (KA) for phloretin with SrtA was measured using a fluorescence-quenching method. A 280-nm excitation wavelength with a 5-nm band-pass and a 345-nm emission wavelength with a 10-nm band-pass were used for the measurements. The details of the protocol used to perform the measurements were as previously described (Bandyopadhyay et al., [2002]; Jurasekova et al., [2009]).

Another series deals with T3, I103A (Listeria monocytogenes serovar 1/2a, UniProt Q8Y8H5, I175A).
T3 construct: GST (inferred from vector pGEX-6P-1) (N); made in house
The experiment in a line: Fluorescence-quenching binding constant (I103A). The conditions noted are these: fluorescence-quenching spectroscopy, read-out: binding constant KA (converted). As to the method: as §1

In a further series the target is T4, V129A (Listeria monocytogenes serovar 1/2a, UniProt Q8Y8H5, V201A).
T4 construct: GST (inferred from vector pGEX-6P-1) (N); made in house
Nature of the series: Fluorescence-quenching binding constant (V129A). Particulars: fluorescence-quenching spectroscopy, read-out: binding constant KA (converted). As to the method:
as §1

Series [2] has as its system L. monocytogenes invasion into Caco-2 cells. The experiment in a line: L. monocytogenes invasion into Caco-2 cells (CFU assay, immunostaining). It counts as cell-based, Listeria monocytogenes. Particulars: EGDeΔsrtA co-treated or pre-treated with phloretin; Caco-2, 1 h. How it is done:
(§2) The Caco-2 cell line was maintained in RPMI-1640 medium with 10% fetal bovine serum, non-essential amino acids and antibiotics in a humidified atmosphere at 37°C with 5% CO2. The cells were routinely adjusted to a concentration of 3 × 10^5 cells per ml, seeded into 24-well plastic culture microplates (3 × 10^5 per microplate) and cultured for 48 h for immunostaining and the determination of intracellular bacterial growth. To assay LDH release, cell monolayers were incubated overnight in culture medium without antibiotics in 96-well plates (2 × 10^4 cells per well).
Caco-2 cells were co-cultured with L. monocytogenes at an MOI of 100. […] In each case, gentamicin (20 μg/ml) was added 30 min after bacterial internalization.
A 0.3% concentration of Triton X-100 was added to permeabilize the cells for 4 min prior to stain the total bacteria (intracellular + extracellular) with a rabbit L. monocytogenes-specific antibody (Abcam) and an Alexa Fluor 488-conjugated chicken anti-rabbit antibody (Molecular Probes).

For series [3], the system named is L. monocytogenes-induced cytotoxicity in Caco-2 cells. The experiment in a line: LDH release assay of infected Caco-2 cells. It counts as cell-based, Listeria monocytogenes. Particulars: all phloretin-treated groups vs infected untreated control; 5 h, MOI 100. As to the method:
as §2
Caco-2 cells grown in 96-well microplates were infected with L. monocytogenes pre-exposed or not to phloretin at a multiplicity of infection (MOI) of 100. Following infections with discriminatory concentrations of phloretin for 5 h, the LDH released into the supernatants of the co-culture system was determined using a Cytotoxicity Detection Kit (LDH; Roche, Basel, Switzerland) as previously described (Wang et al., [2015a]).
A general note: Release of lactate dehydrogenase indicates damage to the cell membrane.

In a further series the test system is Caco-2 cells. Nature of the series: Cytotoxicity of phloretin in Caco-2 cells. It counts as cell-based. The conditions noted are these: phloretin treatment alone.
Series [4] relates to L. monocytogenes. Nature of the series: Mouse model of L. monocytogenes infection. It counts as in vivo, BALB/c mice. How it is done: Female 6- to 8-week-old BALB/c mice were purchased from Liao Ning Chang Sheng Biotechnology Co., LTD. The mice used for the experiments were housed and handled in accordance with the guidelines established by the United States National Institutes of Health. These studies were reviewed and approved by the Institutional Animal Care and Use Committee of Jilin University.
(§3) Overnight cultures of L. monocytogenes were enlarged by culturing into fresh TSB (1:100) at 37°C with shaking until the OD at 600 nm reached 1.0, at which point they were harvested. The cell pellets were washed and suspended in normal saline. To establish an infection model, 200 μL prepared bacterial suspension (1 × 10^8 CFU/ml) was intraperitoneally inoculated into BALB/c mice. The infected mice in the treatment group were subcutaneously administered 150 mg/kg of phloretin 2 h after infection and again at 8-h intervals. The infected mice in the […] group were injected with an equal volume of dimethyl sulfoxide (DMSO) at the same time points. Finally, a group of healthy mice received only phloretin to examine the toxicity of the drug. Each group had 10 mice, and the therapeutic trial lasted for 96 h; survival statistics were collected throughout this period.
(§4) For histopathologic analysis, the mice were euthanized with anesthesia following cervical dislocation at 48 h post-infection. Liver and spleen tissues were removed, fixed with formalin, embedded in paraffin, stained with hematoxylin and eosin and visualized by light microscopy. To analyze the bacterial burden in tissue, the liver and spleen tissues collected from the sacrificed mice were weighed, lysed in 2% Triton X-100 and inoculated onto TSB agar plates at 37°C overnight.

A short description of series [5]: Toxicity of phloretin in healthy (uninfected) mice. It counts as in vivo, BALB/c mice. As to the method:
as §3, §4

Another series has as its system L. monocytogenes EGDe. The experiment in a line: Susceptibility assays (MIC, growth curve).
For series [6], the target named is T5, WT-SrtA (Listeria monocytogenes serovar 1/2a, UniProt Q8Y8H5). The experiment in a line: Sortase A enzyme activity inhibition assay (WT-SrtA).
Method: Following another incubation at 37°C for 1 h, the fluorescence intensity of each sample was determined at emission and excitation wavelengths of 350 and 520 nm, respectively, in a black 96-well plate.
Series [7] concerns the target T5, WT-SrtA. The experiment in a line: Fluorescence-quenching binding constant (WT-SrtA). More on the design: GST (inferred from vector pGEX-6P-1) (N); made in house. How it is done:
as §1

The structures appear in SMILES notation. ≈ marks a conversion by molar mass, not a printed value. Like-named read-outs stand apart in the source and are kept apart here.

T5 sequence (Q8Y8H5 71-222): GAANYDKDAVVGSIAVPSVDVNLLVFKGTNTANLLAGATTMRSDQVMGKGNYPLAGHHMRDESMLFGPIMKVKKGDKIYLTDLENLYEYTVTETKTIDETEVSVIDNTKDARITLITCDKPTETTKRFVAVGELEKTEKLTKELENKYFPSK
T1 sequence (P13128 25-529): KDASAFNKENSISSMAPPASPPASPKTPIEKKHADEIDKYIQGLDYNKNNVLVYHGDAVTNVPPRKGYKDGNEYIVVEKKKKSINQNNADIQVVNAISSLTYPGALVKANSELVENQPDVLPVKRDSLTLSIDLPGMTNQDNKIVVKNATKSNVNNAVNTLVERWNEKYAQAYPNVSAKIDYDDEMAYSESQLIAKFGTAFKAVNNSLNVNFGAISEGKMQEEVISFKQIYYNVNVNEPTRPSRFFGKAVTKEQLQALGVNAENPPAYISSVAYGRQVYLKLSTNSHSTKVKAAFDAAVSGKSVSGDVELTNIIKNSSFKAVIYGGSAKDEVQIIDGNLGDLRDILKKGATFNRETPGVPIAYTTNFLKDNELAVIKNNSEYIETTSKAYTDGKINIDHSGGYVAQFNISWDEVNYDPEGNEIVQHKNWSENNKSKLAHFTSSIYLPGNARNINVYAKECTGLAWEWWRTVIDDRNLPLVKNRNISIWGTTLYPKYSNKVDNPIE
T2 sequence (Q8Y8H5 71-222 T162A): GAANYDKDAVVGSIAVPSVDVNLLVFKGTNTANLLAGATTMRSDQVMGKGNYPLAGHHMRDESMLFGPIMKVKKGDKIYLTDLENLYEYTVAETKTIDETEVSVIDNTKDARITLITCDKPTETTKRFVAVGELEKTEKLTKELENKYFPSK
T4 sequence (Q8Y8H5 71-222 V201A): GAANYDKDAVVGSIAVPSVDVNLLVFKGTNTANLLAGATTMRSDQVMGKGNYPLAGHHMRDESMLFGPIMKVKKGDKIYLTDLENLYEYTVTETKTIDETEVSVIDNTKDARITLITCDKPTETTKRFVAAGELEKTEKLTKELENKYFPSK
T3 sequence (Q8Y8H5 71-222 I175A): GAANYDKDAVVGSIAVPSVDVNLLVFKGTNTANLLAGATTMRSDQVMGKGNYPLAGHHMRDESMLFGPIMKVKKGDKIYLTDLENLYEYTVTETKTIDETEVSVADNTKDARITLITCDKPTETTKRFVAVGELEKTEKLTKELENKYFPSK

Consider `O=c1c(O)c(-c2ccc(O)c(O)c2)oc2cc(O)ccc12` [fisetin], for which the “protection against L. monocytogenes infection in vitro and in vivo” value in the series on L. monocytogenes [1] (inhibitor of LLO, ref Wang et al., 2015a) is “robust protection”.

Regarding `O=C(/C=C/c1ccccc1)c1ccccc1` [chalcone], in the series on L. monocytogenes [1] (inhibitor of SrtA, ref Li et al., 2016), the “protection against L. monocytogenes infection in vitro and in vivo” value was “robust protection”.

On to `O=C(CCc1ccc(O)cc1)c1c(O)cc(O)cc1O` [phloretin], for which, at listeriolysin O (LLO) (co-culture with phloretin 7.3–58.34 μM, rabbit erythrocytes), the “hemolytic activities of culture supernatants of L. monocytogenes EGDe cells after co-culture” value is “dose-dependently decreased”. The “hemolytic activities of bacterial culture supernatants after direct pre-incubation” value on listeriolysin O (LLO) (supernatants pre-incubated with various concentrations of phloretin) is “did not affect the hemolytic activities”. Further, in the series with LLO, the “LLO levels in bacterial culture supernatants and cell pellets” value is “reduced in a concentration-dependent manner”. Besides, the transcription of hly entry with hly is on record as “did not affect the transcription of hly”. The Kd at T90A was 17.5 µM; on I103A it was 17.2 µM; at V129A it was 20.1 µM; on WT-SrtA [7] it was 12.6 µM. In addition, in [2], the “invasion of EGDeΔsrtA (CFU assay)” value is reported as “no difference was observed”. Moreover, the “LDH release of EGDe-infected Caco-2 cells” value in series [3] is recorded as “decreased LDH release”. Further, in the series with Caco-2 cells, the “cytotoxicity in Caco-2 cells” value was “did not significantly induce cytotoxicity”. In addition, the “infected mice that had died by 96 h post-infection” value with L. monocytogenes [4] (2 × 10^7 CFUs i.p. per mouse, phloretin 150 mg/kg s.c. 2 h after infection and at 8-h intervals) is 25%. Further, the “gross pathological changes in liver and spleen of infected mice” value in the series on L. monocytogenes [4] (48 h post-infection) is listed as “clearly ameliorated”. The “histopathology (inflammatory lesions) in infected mice” value in the series on L. monocytogenes [4] (48 h post-infection, liver and spleen sections) was “only minor inflammatory lesions”. Moreover, the “numbers of viable bacteria colonized in the livers and spleens” value in the series on L. monocytogenes [4] (48 h post-infection, vs infected mice treated with DMSO) is on record as “significantly lower”. In the series on L. monocytogenes [4] (phloretin 150 mg/kg s.c., 96 h), the “survival rate vs control group treated with DMSO” value is listed as “significantly higher survival rate”. The “survival of mice treated only with phloretin, not infected” value in series [5] (150 mg/kg s.c. at 8-h intervals, 96 h) is “all survived”. For the same molecule, the “pathological changes in uninfected mice treated with phloretin” value in [5] (liver and spleen) is reported as “no pathological changes were observed”. In addition, 933 µM (≈ 256 µg/mL) was the least that counted as inhibitory in the series on L. monocytogenes EGDe (Listeria monocytogenes) (MIC). Further, the “growth of L. monocytogenes” value with L. monocytogenes EGDe (at the concentrations required for inhibition of LLO expression and SrtA catalytic activity, OD 600 nm) was “not apparently affected”. For the same molecule, half-maximal inhibition on WT-SrtA [6] (IC50) required 37.2 µM.
